Assay results: patent publication US20240025880A1 (CHIESI FARMACEUTICI S.P.A., priority 2020, published 2024)
Where two headings read alike, the source gives them in different places.

Assays:
h P2X2/3 = target: T1, h P2X2/3 (Homo sapiens, UniProt P56373+Q9UBL9); test: In vitro electrophysiology assay for P2X2/3 (same protocol, 10 μM ATP agonist); assay type: cell-based; settings: Table 3, mean current seven seconds after agonist, read-out: h P2X2/3 (pIC50 range of activity) (converted)
T1 construct: host or cells: cells not described; same protocol as the P2X3 assay
T1 sequence (P56373 1-397): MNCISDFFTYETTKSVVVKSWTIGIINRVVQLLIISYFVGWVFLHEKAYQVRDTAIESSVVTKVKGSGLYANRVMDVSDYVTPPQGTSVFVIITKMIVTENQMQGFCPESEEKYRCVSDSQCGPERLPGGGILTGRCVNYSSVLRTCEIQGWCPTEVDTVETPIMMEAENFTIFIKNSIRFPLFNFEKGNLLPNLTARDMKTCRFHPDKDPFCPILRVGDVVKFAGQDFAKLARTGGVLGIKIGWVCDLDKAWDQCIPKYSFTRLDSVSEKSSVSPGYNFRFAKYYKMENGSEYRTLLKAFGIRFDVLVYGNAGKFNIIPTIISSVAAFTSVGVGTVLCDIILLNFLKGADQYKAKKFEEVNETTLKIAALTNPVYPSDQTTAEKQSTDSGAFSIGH
T1 sequence (Q9UBL9 1-471): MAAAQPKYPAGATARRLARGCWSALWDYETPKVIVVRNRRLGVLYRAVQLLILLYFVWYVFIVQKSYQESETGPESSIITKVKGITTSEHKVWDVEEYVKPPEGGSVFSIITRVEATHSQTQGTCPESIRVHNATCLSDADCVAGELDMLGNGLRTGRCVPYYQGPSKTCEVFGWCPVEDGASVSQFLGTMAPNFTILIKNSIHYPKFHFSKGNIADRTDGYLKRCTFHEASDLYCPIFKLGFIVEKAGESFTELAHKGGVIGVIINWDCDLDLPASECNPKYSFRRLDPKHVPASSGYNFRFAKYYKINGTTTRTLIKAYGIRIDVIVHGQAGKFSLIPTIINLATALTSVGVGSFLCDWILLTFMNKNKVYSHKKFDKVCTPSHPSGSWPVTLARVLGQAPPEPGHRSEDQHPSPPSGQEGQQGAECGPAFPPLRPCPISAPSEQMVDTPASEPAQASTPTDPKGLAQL
Procedure: Cells expressing P2X3 receptors were grown according to standard practice and maintained at 37° C. in a 5% humidified CO2 atmosphere. The cells were seeded into T175 flask 2 days prior to the day of the assay and dissociated from the flasks using TrypLE when grown to confluence of 80-90%. The dissociated cells were resuspended in serum free media at a cell density of 3×10^6 cells/ml and loaded onto the Sophion Qube automated patch-clamp system. The extracellular assay buffer contained 145 mM NaCl, 4 mM KCl, 2 mM CaCl2, 1 mM MgCl2, 10 mM HEPES, and 10 mM glucose at pH 7.4. The intracellular assay solution contained 140 mM CsF, 10 mM NaCl, 10 mM EGTA, 10 mM HEPES at pH 7.2. Agonist stock solutions were prepared in H2O and diluted in bath solution prior to use. All antagonists were prepared as 10 mM stock solutions in DMSO and diluted in bath solution prior to use. All experiments were performed under the whole-cell patch clamp configuration at room temperature with 384 individual cells being voltage clamped at −60 mV simultaneously on the Sophion Qube instrument. Two baseline responses were established with the application of α,β-MeATP (800 nM), with the subsequent agonist applications being washed out using extracellular assay buffer containing 0.5 U/ml apyrase. Following the second agonist application, antagonist was incubated in the absence of α,β-MeATP for 10 minutes. After antagonist preincubation, 800 nM α,β-MeATP and antagonist were co-administered to determine the inhibitory effect of the antagonist. One concentration of an antagonist was assessed against a single cell, with different concentrations of the antagonist applied to other cells on the 384 recording substrate. The control P2X3 current amplitude was taken from the peak current amplitude from the second agonist response prior to preincubation with antagonist. The peak P2X3 current amplitude in the presence of antagonist was used to calculate the inhibitory effect at each concentration of the antagonist according to the following equation: […]
In vitro Electrophysiology Assay for P2X2/3
Representative compound of the present invention have been also tested for P2X2/3 receptor.
The same assay protocol was used for the P2X2/3 assay as the P2X3 assay with two modifications: 1) 10 μM ATP was used as the agonist; and 2) the mean current amplitude was measured seven seconds after the application of agonist.

h P2X3 = target: T2, h P2X3 (Homo sapiens, UniProt P56373); test: In vitro electrophysiology assay for P2X3 (automated whole-cell patch clamp, α,β-MeATP agonist); assay type: cell-based; settings: 800 nM α,β-MeATP, peak current, read-out: h P2X3 (pIC50 range of activity) (converted)
T2 sequence (P56373 1-397): T1 sequence (P56373 1-397)
Outline: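 Automated whole-cell patch clamp of P2X3-expressing cells at −60 mV, room temperature, pH 7.4 bath with CsF internal solution. Antagonist preincubated 10 min, then co-applied with 800 nM α,β-MeATP; peak current inhibition versus second agonist response, ten concentrations, IC50 from four-parameter fit.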

SMILES	IC50 (h P2X2/3) [µM]	IC50 (h P2X3; Table 2) [µM]	IC50 (h P2X3; Table 3) [µM]
COC(=O)N1CCC(Oc2cc(-c3ccc(F)cc3)cc3c(NCc4ccc(C)nn4)ncnc23)CC1 [Example 65, Methyl 4-[6-(4-fluorophenyl)-4-[(6-methylpyridazin-3-yl)methylamino]quinazolin-8-yl]oxypiperidine-1-carboxylate]	3.16 to 31.6	0.316 to 3.16	0.316 to 3.16
COC(=O)N1CCC(Oc2cc(-c3ccc(F)cc3)cc3c(NCc4ccc(C)nn4)ncnc23)C1 (stereo not drawn) [Example 68, Methyl 3-[6-(4-fluorophenyl)-4-[(6-methylpyridazin-3-yl)methylamino]quinazolin-8-yl]oxypyrrolidine-1-carboxylate]	3.16 to 31.6	0.316 to 3.16	0.316 to 3.16
